PubChem BioAssay AID651642 (Sanford-Burnham Center for Chemical Genomics, 2012)

Columns and labels:
[1] = tested on: H9c2; assay: cardiomyocyte survival under oxidative or metabolic stress – cell-based, panel, H9c2 and HL-1, H2O2, 2-deoxyglucose, ATP luminescence, SAR follow-up (AID 651642)
[2] = tested on: HL-1; assay: as above
[3] = H9c2/HL-1 cardiomyocyte 2-deoxyglucose damage, run 1, with 2-deoxyglucose
[4] = H9c2/HL-1 cardiomyocyte 2-deoxyglucose damage, run 2, with 2-deoxyglucose
[5] = H9c2/HL-1 cardiomyocyte 2-deoxyglucose damage, run 3, with 2-deoxyglucose
[6] = H9c2/HL-1 cardiomyocyte 2-deoxyglucose damage, run 4, with 2-deoxyglucose
[7] = H9c2/HL-1 cardiomyocyte H2O2 oxidative damage, mean of runs, with H2O2, mean IC50 across panel
[8] = H9c2/HL-1 cardiomyocyte H2O2 oxidative damage, run 1, with H2O2
[9] = H9c2/HL-1 cardiomyocyte H2O2 oxidative damage, run 2, with H2O2
[10] = H9c2/HL-1 cardiomyocyte H2O2 oxidative damage, run 3, with H2O2
[11] = H9c2/HL-1 cardiomyocyte H2O2 oxidative damage, run 4, with H2O2
[12] = H9c2/HL-1 cardiomyocyte 2-deoxyglucose damage, mean of runs, with 2-deoxyglucose, mean IC50 across panel

Structure (SMILES) | IC50 [1, 3] | IC50 [1, 4] | IC50 [1, 5] | IC50 [1, 6] | IC50 [1, 7] | IC50 [1, 8] | IC50 [1, 9] | IC50 [1, 10] | IC50 [1, 11] | IC50 [2, 12] | IC50 [2, 3] | IC50 [2, 4] | IC50 [2, 5] | IC50 [2, 6] | IC50 [2, 7] | IC50 [2, 8] | IC50 [2, 9] | IC50 [2, 10] | IC50 [2, 11] | IC50 [1, 12]
COc1cc(-c2cc(C(=O)NCC(=O)Nc3cccc(C(C)=O)c3)c3cc(C)ccc3n2)cc(OC)c1OC | > 79 µM | > 79 µM | 19.9 µM | 24.4 µM | 10.1 µM | 12.5 µM | 13.5 µM | 5.91 µM | 8.51 µM | 23 µM | 13.6 µM | 14.8 µM | 29.8 µM | 33.9 µM | 36.9 µM | 34.9 µM | 44.3 µM | 25.5 µM | 43.1 µM | –
COc1ccc2c(c1OC)C(=O)N1c3ccccc3C(=O)N(Cc3ccccc3F)C21 (stereo unspecified) | 36.6 µM | 37.9 µM | 31.3 µM | 31.6 µM | – | 1.35 µM | 2.03 µM | > 79 µM | > 79 µM | 7.16 µM | 2.26 µM | 2.31 µM | 8.41 µM | 15.7 µM | > 79 µM | > 79 µM | > 79 µM | > 79 µM | > 79 µM | 34.3 µM
COc1ccc2c(c1OC)C(=O)N1c3ccccc3C(=O)N(Cc3ccccc3C)C21 (stereo unspecified) | 17 µM | 18.1 µM | 13.8 µM | 16.2 µM | – | 1.32 µM | 2.6 µM | > 79 µM | > 79 µM | 3.01 µM | 1.65 µM | 1.91 µM | 3.79 µM | 4.71 µM | > 79 µM | > 79 µM | > 79 µM | > 79 µM | > 79 µM | 16.3 µM
CCOC(=O)c1cccc(NC(=O)c2cc(-c3cc(OC)c(OC)c(OC)c3)nc3ccc(F)cc23)c1 | > 79 µM | > 79 µM | > 79 µM | > 79 µM | – | 9 µM | 10.7 µM | > 79 µM | 3.82 µM | – | 3.32 µM | 4.09 µM | > 79 µM | > 79 µM | 4.11 µM | 2.77 µM | 7.9 µM | 2.4 µM | 3.37 µM | > 79 µM
COc1cc(-c2cc(C(=O)Nc3cccc(C(=O)NCc4ccccc4)c3)c3ccccc3n2)cc(OC)c1OC | 3.81 µM | 4.57 µM | 2.32 µM | 2.81 µM | 1.13 µM | 1.54 µM | 1.62 µM | 0.678 µM | 0.686 µM | 1.36 µM | 0.74 µM | 0.813 µM | 1.85 µM | 2.05 µM | 3.33 µM | 1.7 µM | 2.25 µM | 2.4 µM | 6.96 µM | 3.38 µM
COc1cc(-c2cc(C(=O)Nc3cccc(C(C)=O)c3)c3cccc(Cl)c3n2)cc(OC)c1OC | > 79 µM | > 79 µM | > 79 µM | > 79 µM | > 79 µM | > 79 µM | > 79 µM | > 79 µM | > 79 µM | > 79 µM | > 79 µM | > 79 µM | > 79 µM | > 79 µM | – | > 79 µM | > 79 µM | 2 µM | 2.5 µM | > 79 µM
CCOC(=O)c1ccccc1NC(=O)c1cc(-c2cc(OC)c(OC)c(OC)c2)nc2ccccc12 | > 79 µM | > 79 µM | > 79 µM | > 79 µM | – | 4.3 µM | 4.52 µM | > 79 µM | > 79 µM | – | 2.72 µM | 3 µM | > 79 µM | > 79 µM | – | > 79 µM | > 79 µM | > 79 µM | 6.51 µM | > 79 µM
CCOC(=O)c1cccc(NC(=O)CNC(=O)c2cc(-c3cc(OC)c(OC)c(OC)c3)nc3ccccc23)c1 | 8.17 µM | 9.67 µM | > 79 µM | > 79 µM | – | 2.07 µM | 2.14 µM | > 79 µM | > 79 µM | – | 2.08 µM | 2.42 µM | > 79 µM | > 79 µM | – | 9.1 µM | 17.9 µM | > 79 µM | > 79 µM | –
COc1ccc2c(c1OC)C(=O)N1c3ccccc3C(=O)N(Cc3cccc(Br)c3)C21 (stereo unspecified) | > 79 µM | > 79 µM | > 79 µM | > 79 µM | – | 2.22 µM | 3.79 µM | > 79 µM | > 79 µM | 7.49 µM | 5.07 µM | 5.69 µM | 7.9 µM | 11.3 µM | > 79 µM | > 79 µM | > 79 µM | > 79 µM | > 79 µM | > 79 µM
